Tested on: sulfhydryl oxidase
Assay: Effect of metal ions and EDTA on sulfhydryl oxidase activity
Type: biochemical, bovine
Experimental: In the second method of assay, the rate of O2 consumption was measured with an oscillating platinum electrode using a Gilson model K Oxygraph. In a typical assay, 0.2 ml of enzyme solution was added to 1.5 ml of 0.8 mM GSH which had been equilibrated at 35° in the electrode cell. […] Enzymic reaction rates were calculated from the initial slopes obtained.
Assays were performed in phosphate at pH 7.0 and 35° using 0.8 mM GSH as substrate. An aliquot of the stock enzyme solution was removed and assayed in the presence of 1.0 mM EDTA. […] Controls were prepared using boiled enzyme and also using the dialysate containing the metal ion. In both cases, significant O2 consumption was not observed.

[1] = EDTA-treated enzyme dialyzed against 1.0 mM solution of the metal ion, phosphate pH 7.0, 35°, 0.8 mM GSH

Row | Compound | Enzyme activity [1] | further results
1 | [Cl][Co][Cl] [Cobalt chloride] | 0.021 μmol O2 consumed/min. | –
2 | O=S(=O)([O-])[O-].[Cu+2] [Copper sulfate] | 0.109 μmol O2 consumed/min. | –
3 | O=C(O)CN(CCN(CC(=O)O)CC(=O)O)CC(=O)O [EDTA] | – | Effect of EDTA treatment on enzyme activity: complete loss of activity; Enzyme activity (pH 7): 0.012 μmol O2 consumed/min.
4 | [Cl][Mn][Cl] [Manganese (II) chloride] | 0.085 μmol O2 consumed/min. | –

Continued, in another order:

Row | Enzyme activity [1] | Compound | further results
5 | 0.008 μmol O2 consumed/min. | [Br][Mo][Br] [Molybdenum dibromide, molybdenum dibromide] | –
6 | 0.029 μmol O2 consumed/min. | O=S(=O)([O-])[O-].[Zn+2] [Zinc sulfate] | –
7 | 0.256 μmol O2 consumed/min. | Ferrous sulfate | Restoration of activity after EDTA treatment (dialysis against 1 μM ferrous sulfate): restored
